The values below come from ChEMBL document CHEMBL1128246, “Synthesis and structure-activity relationships of oxamic acid and acetic acid derivatives related to L-thyronine” (J Med Chem, 1995).

SMILES strings stand for the structures. pIC50: −log10 of the molar value. Where only a bound is given, the exact number is not on record here.

For experiment [1], the target named is T1, Thyroid hormone receptor beta (Rattus norvegicus, UniProt P18113).
T1 sequence (P18113 whole entry): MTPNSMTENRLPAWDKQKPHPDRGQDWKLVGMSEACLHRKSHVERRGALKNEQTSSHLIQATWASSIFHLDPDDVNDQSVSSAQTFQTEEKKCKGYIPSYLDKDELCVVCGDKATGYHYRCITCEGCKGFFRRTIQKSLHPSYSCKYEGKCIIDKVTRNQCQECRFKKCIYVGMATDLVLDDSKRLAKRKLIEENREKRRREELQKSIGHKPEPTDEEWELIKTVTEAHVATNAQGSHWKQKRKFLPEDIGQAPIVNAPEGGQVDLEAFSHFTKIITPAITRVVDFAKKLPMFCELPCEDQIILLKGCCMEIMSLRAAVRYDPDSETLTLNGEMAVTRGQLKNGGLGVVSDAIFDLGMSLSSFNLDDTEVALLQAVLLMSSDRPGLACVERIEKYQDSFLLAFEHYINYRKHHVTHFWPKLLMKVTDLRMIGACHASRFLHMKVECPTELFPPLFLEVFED
The experiment in a line: Ability to inhibit the bound [125I]L-T3 rat liver Nuclear L-triiodothyronine receptor is determined in vitro.

Experiment [2] deals with Rattus norvegicus. Nature of the experiment: Dose which was not showing any cardiac effect in normal cholesterol rats upon peroral administration. It counts as functional.
Experiment [3] concerns Rattus norvegicus. The experiment in a line: Percent change in serum LDL level was determined in hypercholesterolemic rats at 25 ug/Kg upon peroral administration. It counts as functional.
Experiment [4] concerns Rattus norvegicus. Nature of the experiment: Percent change in serum HDL level was determined in hypercholesterolemic rats at 25 ug/Kg upon peroral administration. It counts as functional.
The subject of experiment [5] is Rattus norvegicus. Nature of the experiment: Effective dose was determined in hypercholesterolemic rats for lowering total serum cholesterol compared to control upon peroral administration. It counts as functional. Conditions: po.
Experiment [6] has as its system Rattus norvegicus. The experiment in a line: Minimum effective dose was determined in hypercholesterolemic rats for lowering total cholesterol level compared to control upon peroral administration. In kind it is functional. Conditions: po, read-out: MED.
The test system of experiment [7] is Rattus norvegicus. The experiment in a line: Percent change in serum HDL level was determined in hypercholesterolemic rats at 10 ug/Kg upon peroral administration. In kind it is functional.
In experiment [8] the test system is Rattus norvegicus. Nature of the experiment: Percent change in serum LDL level was determined in hypercholesterolemic rats at 10 ug/Kg upon peroral administration. It counts as functional.
Experiment [9] concerns Rattus norvegicus. The experiment in a line: Percent change in serum HDL level was determined in hypercholesterolemic rats at 100 ug/Kg upon peroral administration. It counts as functional.
The test system of experiment [10] is Rattus norvegicus. The experiment in a line: Percent change in serum LDL level was determined in hypercholesterolemic rats at 100 ug/Kg upon peroral administration. In kind it is functional.

What is called pIC50 is the negative decadic logarithm of the IC50, by convention in mol/L. A high value points to a low IC50. In the case of `CC(C)c1cc(Oc2c(Br)cc(OCC(=O)O)cc2Br)ccc1O`, in [1], the pIC50 is 10.00.
Same read-out and setting: as for `Cc1cc(NC(Cc2ccccc2)C(=O)O)cc(C)c1Oc1ccc(O)c(C(C)C)c1` (stereo unspecified), the figure is 6.40.
As usually defined, the ED50 is the dose at which the effect has come halfway, by size or by number of responders. `Cc1cc(NC(=O)C(=O)O)cc(C)c1Oc1ccc(O)c(C(C)C)c1` gave a Dose in experiment [2] of 10 mg/kg. The figures for the Change in experiment [3] and in experiment [4] were -67% and -5%, respectively. The ED50 in experiment [5] was found to be 0.02 mg/kg. Further, in [6], the minimal effective dose amounted to 0.01 mg/kg.
Turning to `CC(C)c1cc(Oc2c(Cl)cc(NC(Cc3ccccc3)C(=O)O)cc2Cl)ccc1O` (stereo unspecified), the pIC50 in experiment [1] is 7.24.
For `CC(Nc1cc(Cl)c(Oc2ccc(O)c(C(C)C)c2)c(Cl)c1)C(=O)O` (stereo unspecified), the pIC50 in [1] is 7.32.
For the molecule `CC(C)c1cc(Oc2c(Cl)cc(NC(=O)C(=O)O)cc2Cl)ccc1O`, the Dose in experiment [2] stood at 10 mg/kg. Moreover, the ED50 in [5] was determined as 0.05 mg/kg. Further, the minimal effective dose in [6] stood at 0.0125 mg/kg.
For the molecule `CCOC(=O)C(=O)Nc1cc(C)c(Oc2ccc(O)c(C(O)c3ccc(F)cc3)c2)c(C)c1` (stereo in doubt; 23a) [AXITIROME], the Dose in experiment [2] is >25 mg/kg. Besides, the Change in experiment [7] is on record as 0%; in experiment [8] it was -73%. This molecule showed an ED50 in experiment [5] of 0.005 mg/kg. Besides, in experiment [6], the minimal effective dose is < 0.001 mg/kg.
`CC(C)c1cc(Oc2c(I)cc(NCC(=O)O)cc2I)ccc1O` had a pIC50 in experiment [1] of 9.51.
Take `N[C@@H](Cc1cc(I)c(Oc2ccc(O)c(I)c2)c(I)c1)C(=O)O` [LIOTHYRONINE]: in [2], the Dose is <0.025 mg/kg. In addition, the Change is listed as -8% in experiment [9] and -65% in experiment [10]. In addition, in experiment [5], it took a dose of 0.1 mg/kg to reach the 50% effect level (ED50). In experiment [6], the minimal effective dose is 0.025 mg/kg.
The molecule `Cc1cc(SCC(=O)O)cc(C)c1Oc1ccc(O)c(C(C)C)c1` had a pIC50 in experiment [1] of 8.46.
Consider `Cc1cc(CCC(=O)O)cc(C)c1Oc1ccc(O)c(C(C)C)c1`, for which the pIC50 in experiment [1] was < 5.30.
In experiment [1], `CC(C)c1cc(Oc2c(Br)cc(CCC(=O)O)cc2Br)ccc1O` had a pIC50 of 9.96.
Turning to `CCOC(=O)C(=O)Nc1cc(C)c(Oc2ccc(OC)c(C(O)c3ccc(F)cc3)c2)c(C)c1` (stereo unspecified), the negative-log IC50 (pIC50) in experiment [1] is 7.47.
On the same count and under the same terms, for `Cc1cc(NCC(=O)O)cc(C)c1Oc1ccc(O)c(C(C)C)c1` the value was 7.92.
Still for that read-out and setting: as for `Cc1cc(NC(C)C(=O)O)cc(C)c1Oc1ccc(O)c(C(C)C)c1` (stereo unspecified), the figure is 6.26; as for `CC(C)c1cc(Oc2c(Cl)cc(NCC(=O)O)cc2Cl)ccc1O`, 8.96.
Same read-out and setting: as for `CC(C)c1cc(Oc2c(Br)cc(SCC(=O)O)cc2Br)ccc1O`, the figure is 8.82.
